Reference: BindingDB's records for doi:10.1002/(SICI)1098-2396(200002)35:2<79::AID-SYN1>3.0.CO;2-X (Institut De Recherches Servier, 2000)

Columns and labels:
[1] = target: D(3) dopamine receptor (Homo sapiens, UniProt P35462)
[2] = target: T1, Alpha-2A adrenergic receptor [16-465] (Rattus norvegicus, UniProt P22909)
T1 construct: 16-465
T1 sequence (P22909 whole entry): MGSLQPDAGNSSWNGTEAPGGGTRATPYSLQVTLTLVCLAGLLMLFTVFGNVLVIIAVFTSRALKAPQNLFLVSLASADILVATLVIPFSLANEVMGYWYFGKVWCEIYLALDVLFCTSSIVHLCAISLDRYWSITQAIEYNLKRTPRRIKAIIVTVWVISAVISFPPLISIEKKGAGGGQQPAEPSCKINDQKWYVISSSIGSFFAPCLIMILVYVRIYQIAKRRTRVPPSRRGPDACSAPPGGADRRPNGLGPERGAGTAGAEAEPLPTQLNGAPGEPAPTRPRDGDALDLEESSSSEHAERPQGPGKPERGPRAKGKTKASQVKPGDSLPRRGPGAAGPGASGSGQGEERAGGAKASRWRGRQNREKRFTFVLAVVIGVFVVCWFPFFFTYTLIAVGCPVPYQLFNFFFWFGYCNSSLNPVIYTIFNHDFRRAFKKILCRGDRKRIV

[3] = target: T2, 5-hydroxytryptamine receptor 1A (Rattus norvegicus, UniProt P19327)
T2 sequence (P19327 whole entry): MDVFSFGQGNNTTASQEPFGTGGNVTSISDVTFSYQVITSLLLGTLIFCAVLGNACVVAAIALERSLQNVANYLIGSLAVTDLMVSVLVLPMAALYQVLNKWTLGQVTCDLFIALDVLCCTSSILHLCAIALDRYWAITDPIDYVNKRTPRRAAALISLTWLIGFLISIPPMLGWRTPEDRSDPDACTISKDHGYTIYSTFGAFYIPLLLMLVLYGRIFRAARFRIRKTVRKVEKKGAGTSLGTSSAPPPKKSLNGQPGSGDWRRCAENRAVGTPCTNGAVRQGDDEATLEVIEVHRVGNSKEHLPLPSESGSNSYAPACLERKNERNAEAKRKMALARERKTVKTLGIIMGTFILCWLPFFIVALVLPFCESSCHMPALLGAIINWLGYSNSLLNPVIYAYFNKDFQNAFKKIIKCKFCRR

[4] = target: D(2) dopamine receptor (Rattus norvegicus, UniProt P61169)
Chain of D(2) dopamine receptor (P61169 whole entry): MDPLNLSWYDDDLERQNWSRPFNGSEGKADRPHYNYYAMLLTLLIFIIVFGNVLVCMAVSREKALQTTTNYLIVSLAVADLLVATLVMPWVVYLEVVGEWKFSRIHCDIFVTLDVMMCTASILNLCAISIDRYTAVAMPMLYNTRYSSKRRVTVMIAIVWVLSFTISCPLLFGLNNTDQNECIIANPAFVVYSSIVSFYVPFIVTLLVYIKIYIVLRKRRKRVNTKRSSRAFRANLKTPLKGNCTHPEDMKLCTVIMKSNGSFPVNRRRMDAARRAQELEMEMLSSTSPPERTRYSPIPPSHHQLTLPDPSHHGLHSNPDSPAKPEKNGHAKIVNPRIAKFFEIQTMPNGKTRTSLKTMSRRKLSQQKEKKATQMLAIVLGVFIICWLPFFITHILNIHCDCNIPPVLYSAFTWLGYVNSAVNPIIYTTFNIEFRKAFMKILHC

[5] = target: T3, Alpha-1A adrenergic receptor (Homo sapiens, UniProt P35348)
T3 sequence (P35348 whole entry): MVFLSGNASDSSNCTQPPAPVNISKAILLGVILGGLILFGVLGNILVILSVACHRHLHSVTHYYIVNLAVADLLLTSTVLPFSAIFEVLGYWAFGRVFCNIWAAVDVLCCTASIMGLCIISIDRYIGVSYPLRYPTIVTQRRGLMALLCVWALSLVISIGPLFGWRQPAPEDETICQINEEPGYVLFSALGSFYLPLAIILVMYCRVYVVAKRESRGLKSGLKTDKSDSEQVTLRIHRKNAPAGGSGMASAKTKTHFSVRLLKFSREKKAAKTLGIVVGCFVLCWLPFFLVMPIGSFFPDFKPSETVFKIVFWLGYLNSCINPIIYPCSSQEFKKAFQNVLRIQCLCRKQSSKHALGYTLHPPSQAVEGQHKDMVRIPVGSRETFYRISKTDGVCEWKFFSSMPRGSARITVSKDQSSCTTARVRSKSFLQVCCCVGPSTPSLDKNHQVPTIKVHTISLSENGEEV

[6] = target: T4, Alpha-2C adrenergic receptor (Homo sapiens, UniProt P18825)
T4 sequence (P18825 whole entry): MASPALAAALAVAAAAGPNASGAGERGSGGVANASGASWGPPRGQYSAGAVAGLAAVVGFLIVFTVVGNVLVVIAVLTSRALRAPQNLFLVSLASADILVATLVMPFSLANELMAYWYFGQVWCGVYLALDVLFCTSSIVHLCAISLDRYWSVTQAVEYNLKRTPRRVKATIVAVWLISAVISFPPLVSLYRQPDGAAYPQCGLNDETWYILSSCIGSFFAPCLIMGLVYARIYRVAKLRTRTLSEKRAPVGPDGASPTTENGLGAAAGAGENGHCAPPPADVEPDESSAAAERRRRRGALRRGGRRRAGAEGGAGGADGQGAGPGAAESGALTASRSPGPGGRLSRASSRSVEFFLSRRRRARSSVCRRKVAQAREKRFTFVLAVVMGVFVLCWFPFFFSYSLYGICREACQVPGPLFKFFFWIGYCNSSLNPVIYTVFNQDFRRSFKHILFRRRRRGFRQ

[7] = target: T5, Alpha-1B adrenergic receptor (Homo sapiens, UniProt P35368)
T5 sequence (P35368 whole entry): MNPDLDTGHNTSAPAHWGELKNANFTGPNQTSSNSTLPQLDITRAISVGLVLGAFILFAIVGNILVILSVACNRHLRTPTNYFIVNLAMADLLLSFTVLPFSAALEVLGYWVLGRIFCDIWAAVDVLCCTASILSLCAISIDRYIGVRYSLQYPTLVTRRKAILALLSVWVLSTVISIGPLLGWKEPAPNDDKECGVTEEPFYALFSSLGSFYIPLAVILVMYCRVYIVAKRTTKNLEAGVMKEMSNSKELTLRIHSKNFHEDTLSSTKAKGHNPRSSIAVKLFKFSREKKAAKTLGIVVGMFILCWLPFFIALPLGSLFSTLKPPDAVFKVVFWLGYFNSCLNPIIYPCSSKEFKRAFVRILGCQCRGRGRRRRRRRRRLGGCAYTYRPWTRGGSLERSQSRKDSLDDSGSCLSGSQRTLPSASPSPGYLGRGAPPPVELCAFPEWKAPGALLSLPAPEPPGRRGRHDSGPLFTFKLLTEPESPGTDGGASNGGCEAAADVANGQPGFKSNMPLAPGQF

[8] = target: 5-hydroxytryptamine receptor 1B (Cavia porcellus, UniProt O08892)
Chain of 5-hydroxytryptamine receptor 1B (O08892 whole entry): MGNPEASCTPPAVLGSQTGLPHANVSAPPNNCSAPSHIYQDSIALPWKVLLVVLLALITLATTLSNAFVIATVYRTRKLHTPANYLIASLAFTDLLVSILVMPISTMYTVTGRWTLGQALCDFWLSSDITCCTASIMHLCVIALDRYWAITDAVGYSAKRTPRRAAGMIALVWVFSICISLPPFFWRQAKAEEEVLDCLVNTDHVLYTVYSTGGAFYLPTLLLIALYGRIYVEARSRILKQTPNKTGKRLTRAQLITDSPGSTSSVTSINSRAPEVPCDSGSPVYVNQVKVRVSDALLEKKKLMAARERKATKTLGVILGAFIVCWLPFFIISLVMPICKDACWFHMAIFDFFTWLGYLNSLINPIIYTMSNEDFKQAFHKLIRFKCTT

Chain of D(3) dopamine receptor (P35462 as listed by the source): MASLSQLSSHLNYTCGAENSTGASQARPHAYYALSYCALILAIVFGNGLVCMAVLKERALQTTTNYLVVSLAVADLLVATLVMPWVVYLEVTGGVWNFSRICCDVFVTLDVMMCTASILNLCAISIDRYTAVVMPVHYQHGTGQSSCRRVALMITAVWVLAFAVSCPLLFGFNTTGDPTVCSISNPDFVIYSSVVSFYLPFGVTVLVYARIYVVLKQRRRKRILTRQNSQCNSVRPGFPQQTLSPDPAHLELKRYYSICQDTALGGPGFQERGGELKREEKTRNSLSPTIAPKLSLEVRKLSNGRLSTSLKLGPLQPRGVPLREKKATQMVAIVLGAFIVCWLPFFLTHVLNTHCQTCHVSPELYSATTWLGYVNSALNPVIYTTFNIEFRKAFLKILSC

Fc1cccc2c1OC1CNCC1O2 (stereo not drawn) [CAS_105182-45-4]
Ki [1]: 1000 nM | Ki [2]: 1.25 nM | Ki [3]: 631 nM | Ki [4]: 3160 nM | Ki [5]: 501 nM | Ki [6]: 1.58 nM | Ki [7]: 1000 nM | Ki [8]: 1000 nM
